Data published in article PMC8466754, “Esterase-Sensitive Prodrugs of a Potent Bisubstrate Inhibitor of Nicotinamide N-Methyltransferase (NNMT) Display Cellular Activity” (Biomolecules, 2021).
Values belong to the compound of their own block, whether it stands above or below them.

Key:
[1] = Ester stability assay in buffer (RP-HPLC); assay type: physicochemical; settings: for percentage of compound peak area present after 16 h of incubation, PBS: PBS buffer pH 7.4, 16 h; for percentage of compound peak area present after 16 h of incubation, PBS / percentage of compound peak area present after 16 h of incubation, Tris: room temperature, 1 mM compound; for percentage of compound peak area present after 16 h of incubation, Tris: Tris buffer pH 8.4, 16 h; for hydrolytic stability in buffer (in words): PBS pH 7.4 and Tris pH 8.4, over 16 h
Protocol: The prodrugs were evaluated for their stability in both PBS buffer at pH 7.4 and Tris buffer at pH 8.4. The compounds were dissolved in DMSO at a concentration of 40 mM and diluted with the respective buffer to a final concentration of 1 mM. Compounds were tested directly (t0) and subsequently every 2 h over a time period of 16 h by HPLC. Compounds were eluted from a Dr. Maisch ReproSil-Pur C18 column (4.6 × 250 mm, 10 μm particle size, Dr. Maisch, Ammerbuch-Entringen, Germany) with the following solvent system at a flow rate of 0.5 mL/min: solvent A, 0.1% trifluoroacetic acid in water/acetonitrile (95:5); solvent B, 0.1% trifluoroacetic acid in water/acetonitrile (5:95). Gradient elution was as follows: 100:0 (A/B) to 0:100 (A/B) over 8 min, 0:100 (A/B) for 1 min, then reversion back to 100:0 (A/B) over 1 min, 100:0 (A/B) for 2 min. The formation of the parent compound was evaluated and normalized by measuring the peak area at 214 nm and comparing it to the initial timepoint.
All prodrugs prepared were first tested for their inhibitory activity against NNMT using a biochemical enzymatic activity assay. […] Both these buffers and pHs have been used in the different biochemical and cellular assays described in this report. Compounds were dissolved in DMSO at a concentration of 40 mM and diluted with the respective buffer to a final concentration of 1 mM. Compound stability was then assessed by RP-HPLC directly (t0) and subsequently every 2 h over a time period of 16 h. […] Even for the rather labile methyl ester 12b, the TML group in 14b results in a decrease in hydrolysis of the methyl ester.

[2] = system: T24 human bladder cancer cell line; assay: MTT cell viability assay, T24; assay type: cell-based
Protocol: (§1) HSC-2 human oral cancer cell line, T24 human bladder cancer cell line, and A549 human lung cancer line were cultured in DMEM/F12 medium and supplemented with 10% fetal bovine serum and 50 μg/mL gentamicin at 37 °C in a humidified 5% CO2 incubator. For each compound tested, powder was dissolved in DMSO at 100 mM concentration. This stock solution was then diluted in culture medium to final concentration values ranging between 1 µM and 100 µM. For each sample, DMSO was kept constant at 0.1% final concentration. The day before starting treatment, cells were seeded in 96-well plates, at a density of 2000 cells/well. Cells were allowed to attach overnight and then incubated with compounds at different concentrations, or with DMSO only, for 24, 48, and 72 h. All experiments were performed in triplicate.
(§2) Cell proliferation was determined using a colorimetric assay with 3-(4,5-dimethylthiazol-2-yl)-2,5-diphenyl tetrazolium bromide (MTT). The MTT assay measures the conversion of MTT to insoluble formazan by dehydrogenase enzymes of the intact mitochondria of living cells. Cell proliferation was evaluated by measuring the conversion of the tetrazolium salt MTT to formazan crystals upon treatment with compounds or DMSO only for 24, 48, and 72 h. Briefly, cells were incubated for 2 h at 37 °C with 100 µL fresh culture medium containing 5 µL of MTT reagent (5 mg/mL in PBS). The medium was removed and 200 µL isopropanol were added. The amount of formazan crystals formed correlated directly with the number of viable cells. The reaction product was quantified by measuring the absorbance at 540 nm using a plate reader. Experiments were repeated three times. Results were expressed as a percentage of the control (the control equals 100% and corresponds to the absorbance value of each sample at time zero) and presented as mean values ± standard deviation of three independent experiments performed in triplicate.

pig liver esterase (PLE) = assay: Esterase-mediated hydrolysis to the parent compound (RP-HPLC); assay type: in vitro ADME
Protocol: The conversion of the prodrugs to the parent compound by esterases was evaluated using pig liver esterase (PLE, 18 U/mg, Sigma-Aldrich, St. Louis, MO, USA) in PBS at pH 7.4. Compounds were dissolved in DMSO at 40 mM, diluted to a final concentration of 2 mM with PBS, and added to an equal volume of a 10 mg/mL solution of PLE in PBS (pH 7.4), resulting in final concentrations of 2.5% DMSO, 1 mM compound, and 5 mg/mL PLE. At different time-points 50 µL aliquots were taken, added to 100 µL acetonitrile to precipitate the proteins, and centrifuged for 5 min at 10,000 rpm. The supernatant was subsequently analyzed by HPLC as described in Section 2.2 above.
The next step was to establish whether compounds 12e and 14e are converted to the parent compound in the presence of an esterase.

[3] = system: A549 human lung cancer line; assay: MTT cell viability assay, A549; assay type: cell-based
Protocol: as §1, §2

NNMT = target: T1, NNMT (Homo sapiens, UniProt P40261); assay: 1-Methylnicotinamide (MNA) quantification in A549 cells (LC-MS); settings: A549 lung carcinoma cells; 0.1–100 µM; 24-h treatment (Figure 4)
T1 sequence (P40261 1-264): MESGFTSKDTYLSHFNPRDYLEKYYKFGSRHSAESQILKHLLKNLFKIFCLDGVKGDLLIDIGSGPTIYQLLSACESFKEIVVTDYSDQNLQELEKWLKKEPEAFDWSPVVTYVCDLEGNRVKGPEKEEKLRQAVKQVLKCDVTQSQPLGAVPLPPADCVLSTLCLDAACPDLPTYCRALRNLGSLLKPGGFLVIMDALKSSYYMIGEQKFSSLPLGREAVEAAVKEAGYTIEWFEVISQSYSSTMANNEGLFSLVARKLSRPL
Protocol: Human lung adenocarcinoma line (A549, ATCC, Manassas, VA, USA) was cultured according to the provider’s indications and seeded in 6-well format. […] After incubation, effluent samples were taken and frozen (−80 °C) for further MNA measurement. Cells also were collected, centrifuged (2 × 500 G/5 min.), and frozen both for the measurement of intracellular MNA and for BCA protein assay.
The quantification of 1-methylnicotinamide (MNA), nicotinamide (NA), nicotinic acid (NicA), 1-methyl-2-pyridone-5-carboxamide (Met-2Pyr), and 1-methyl-4-pyridone-5-carboxamide (Met-4Pyr) was performed by applying ultra-high pressure liquid chromatography coupled to tandem mass spectrometry (UPLC-MS) according to the methodology previously described with minor modifications [35]. A UPLC-MS system comprised of a UPLC Ultimate 3000 (Dionex, Thermo Scientific, Waltham, MA, USA) connected to a TSQ Quantum Ultra mass spectrometer (Thermo Scientific, Waltham, MA, USA) equipped with a heated electrospray ionization interface (HESI-II Probe, Waltham, MA, USA) was used. Chromatographic separation of analytes was carried out on an Aquasil C18 analytical column (4.6 mm × 150 mm, 5 mm; Thermo Scientific, Waltham, MA, USA) under isocratic elution using acetonitrile with 0.1% of formic acid (A) and 5 mM ammonium formate in water (B) as mobile phases delivered at the flow rate of 0.8 mL/min (A:B, 80:20, v/v). The cell pellet was resuspended in 60 µL of deionized water and 50 µL of suspension was transferred to a fresh test tube. An amount of 50 µL of effluent sample was used for the measurement of extracellular MNA. The internal standard (IS) containing MNA-d3 was added to each sample (5 µL) obtaining the final concentration of 500 ng/mL. After the sample mixing, the proteins were precipitated using 100 μL of acidified acetonitrile (0.1% of formic acid), and samples were mixed (10 min), cooled at 4 °C (15 min), and finally centrifuged (15,000× g, 15 min, 4 °C). A clear supernatant was transferred to a chromatographic vial and directly injected (5 µL) into UPLC-MS system. […] The concentration of MNA was calculated based on the calibration curve plotted for the analyte as the relationship between the peak area ratios of analyte/IS to the nominal concentration of the analyte. The concentration of analytes was normalized to milligram of proteins, which was assessed using a Pierce^TM BCA Protein Assay Kit (Thermo Fisher, Waltham, MA, USA) and a Synergy4 multiplate reader (BioTek, Winooski, VT, USA). […]
Using this assay, the levels of MNA produced by NNMT in an A549 lung carcinoma cell line can be quantified by means of a sensitive LC-MS method.

[4] = system: HSC-2 human oral cancer cell line; assay: MTT cell viability assay, HSC-2; assay type: cell-based
Protocol: as §1, §2

Compound: CCCOC(=O)[C@H](CCN(C/C=C/c1ccc(C#N)cc1)C[C@H]1O[C@@H](n2cnc3c(N)ncnc32)[C@H](O)[C@@H]1O)NC(=O)CC(C)(C)c1c(C)cc(C)cc1OC(C)=O [Compound 14d, Propyl-(S)-2-(3-(2-acetoxy-4,6-dimethylphenyl)-3-methylbutanamido)-4-((((2R,3S,4R,5R)-5-(6-amino-9H-purin-9-yl)-3,4-dihydroxytetrahydrofuran-2-yl)methyl)((E)-3-(4-cyanophenyl)allyl)amino)butanoate]
percentage of compound peak area present after 16 h of incubation, PBS [1]: 90.30% | percentage of compound peak area present after 16 h of incubation, Tris [1]: 87.52%

percentage of compound peak area present after 16 h of incubation, PBS [1]: 33.43% | hydrolytic stability in buffer (in words) [1]: least stable | percentage of compound peak area present after 16 h of incubation, Tris [1]: 21.60%
Compound: N#Cc1ccc(/C=C/CN(CC[C@H](N)C(=O)OCc2ccccc2)C[C@H]2O[C@@H](n3cnc4c(N)ncnc43)[C@H](O)[C@@H]2O)cc1 [Compound 12f, Benzyl-(S)-2-amino-4-((((2R,3S,4R,5R)-5-(6-amino-9H-purin-9-yl)-3,4-dihydroxy-tetrahydrofuran-2-yl)methyl)((E)-3-(4-cyanophenyl)allyl)amino)butanoate]

Compound: CC(=O)Oc1cc(C)cc(C)c1C(C)(C)CC(=O)N[C@@H](CCN(C/C=C/c1ccc(C#N)cc1)C[C@H]1O[C@@H](n2cnc3c(N)ncnc32)[C@H](O)[C@@H]1O)C(=O)OC(C)C [Compound 14e, Isopropyl-(S)-2-(3-(2-acetoxy-4,6-dimethylphenyl)-3-methylbutanamido)-4-((((2R,3S,4R,5R)-5-(6-amino-9H-purin-9-yl)-3,4-dihydroxytetrahydrofuran-2-yl)methyl)((E)-3-(4-cyanophenyl)allyl)amino)butanoate]
effect on cell viability (MTT) ([2]; 100 µM, 24, 48 and 72 h): time dependent reduction in cell viability | effect on cell viability (MTT) ([2]; 1 and 10 µM, 24, 48 and 72 h): no effects | time to full conversion to the parent compound (pig liver esterase (PLE); 5 mg/mL PLE, PBS pH 7.4, 1 mM compound): ≤ 4 h | hydrolysis in the absence of PLE (pig liver esterase (PLE); PBS pH 7.4, without PLE): no hydrolysis was observed | effect on cell viability (MTT) ([3]; 100 µM, 24, 48 and 72 h): time dependent reduction in cell viability | effect on cell viability (MTT) ([3]; 1 and 10 µM, 24, 48 and 72 h): no effects | percentage of compound peak area present after 16 h of incubation, PBS [1]: 91.13% | hydrolytic stability in buffer (in words) [1]: most stable | percentage of compound peak area present after 16 h of incubation, Tris [1]: 87.69% | effect on cellular MNA levels (NNMT): even further enhanced | effect on cell viability (MTT) ([4]; 100 µM, 24, 48 and 72 h): time dependent reduction in cell viability | effect on cell viability (MTT) ([4]; 1 and 10 µM, 24, 48 and 72 h): no effects

Compound: CCOC(=O)[C@H](CCN(C/C=C/c1ccc(C#N)cc1)C[C@H]1O[C@@H](n2cnc3c(N)ncnc32)[C@H](O)[C@@H]1O)NC(=O)CC(C)(C)c1c(C)cc(C)cc1OC(C)=O [Compound 14c, Ethyl-(S)-2-(3-(2-acetoxy-4,6-dimethylphenyl)-3-methylbutanamido)-4-((((2R,3S,4R,5R)-5-(6-amino-9H-purin-9-yl)-3,4-dihydroxytetrahydrofuran-2-yl)methyl)((E)-3-(4-cyanophenyl)allyl)amino)butanoate]
percentage of compound peak area present after 16 h of incubation, PBS [1]: 90.44% | percentage of compound peak area present after 16 h of incubation, Tris [1]: 87.00%

Compound: CNc1ccc(C(N)=O)cn1 [Compound 6-MANA, 6-methylamino-nicotinamide, reference compound]
effect on cell viability (MTT) ([2]; 100 µM, 24, 48 and 72 h): no effect | effect on cell viability (MTT) ([2]; 1 and 10 µM, 24, 48 and 72 h): no effects | effect on cell viability (MTT) ([3]; 100 µM, 24, 48 and 72 h): no effect | effect on cell viability (MTT) ([3]; 1 and 10 µM, 24, 48 and 72 h): no effects | effect on cellular MNA levels (NNMT): high concentrations of both 6-MANA and GYZ-319 are required to substantially decrease the levels of MNA | effect on cell viability (MTT) ([4]; 100 µM, 24, 48 and 72 h): no effect | effect on cell viability (MTT) ([4]; 1 and 10 µM, 24, 48 and 72 h): no effects

Compound: COC(=O)[C@H](CCN(C/C=C/c1ccc(C#N)cc1)C[C@H]1O[C@@H](n2cnc3c(N)ncnc32)[C@H](O)[C@@H]1O)NC(=O)CC(C)(C)c1c(C)cc(C)cc1OC(C)=O [Compound 14b, Methyl-(S)-2-(3-(2-acetoxy-4,6-dimethylphenyl)-3-methylbutanamido)-4-((((2R,3S,4R,5R)-5-(6-amino-9H-purin-9-yl)-3,4-dihydroxytetrahydrofuran-2-yl)methyl)((E)-3-(4-cyanophenyl)allyl)amino)butanoate]
percentage of compound peak area present after 16 h of incubation, PBS [1]: 88.08% | percentage of compound peak area present after 16 h of incubation, Tris [1]: 73.88%

percentage of compound peak area present after 16 h of incubation, PBS [1]: 36.97% | percentage of compound peak area present after 16 h of incubation, Tris [1]: 22.59%
Compound: COC(=O)[C@@H](N)CCN(C/C=C/c1ccc(C#N)cc1)C[C@H]1O[C@@H](n2cnc3c(N)ncnc32)[C@H](O)[C@@H]1O [Compound 12b, Methyl-(S)-2-amino-4-((((2R,3S,4R,5R)-5-(6-amino-9H-purin-9-yl)-3,4-dihydroxy-tetrahydrofuran-2-yl)methyl)((E)-3-(4-cyanophenyl)allyl)amino)butanoate]

percentage of compound peak area present after 16 h of incubation, PBS [1]: 68.36% | percentage of compound peak area present after 16 h of incubation, Tris [1]: 54.84%
Compound: CCOC(=O)[C@@H](N)CCN(C/C=C/c1ccc(C#N)cc1)C[C@H]1O[C@@H](n2cnc3c(N)ncnc32)[C@H](O)[C@@H]1O [Compound 12c, Ethyl-(S)-2-amino-4-((((2R,3S,4R,5R)-5-(6-amino-9H-purin-9-yl)-3,4-dihydroxytetrahydrofuran-2-yl)methyl)((E)-3-(4-cyanophenyl)allyl)amino)butanoate]

percentage of compound peak area present after 16 h of incubation, PBS [1]: 71.96% | percentage of compound peak area present after 16 h of incubation, Tris [1]: 61.32%
Compound: CCCOC(=O)[C@@H](N)CCN(C/C=C/c1ccc(C#N)cc1)C[C@H]1O[C@@H](n2cnc3c(N)ncnc32)[C@H](O)[C@@H]1O [Compound 12d, Propyl-(S)-2-amino-4-((((2R,3S,4R,5R)-5-(6-amino-9H-purin-9-yl)-3,4-dihydroxy-tetrahydrofuran-2-yl)methyl)((E)-3-(4-cyanophenyl)allyl)amino)butanoate]
